# Where two headings read alike, the source gives them in different places.
# Columns and labels:
# [1] = tested on: representative EVs and RVs; format: cell-based
# CV-B3 [2] = assay: microbe, parasite or virus in culture; format: cell-based, coxsackievirus B3; details: for EC50: Enterovirus B
# HRV-A2 = assay: microbe, parasite or virus in culture; format: cell-based, human rhinovirus; details: for EC50: Human rhinovirus sp., HRVA2, HeLa R19, read-out: EC50 HRV-A2
# HRV-B14 = assay: microbe, parasite or virus in culture; format: cell-based, human rhinovirus; details: for EC50: Human rhinovirus sp.
# EV-D68 = assay: microbe, parasite or virus in culture; format: cell-based, enterovirus D68; details: for EC50: Enterovirus D
# in vitro [3] = details: human
# PV-1 = assay: microbe, parasite or virus in culture; format: cell-based, poliovirus 1; details: Enterovirus C, HeLa R19, read-out: EC50 PV-1
# CV-B3 [4] = assay: microbe, parasite or virus in culture; format: cell-based, coxsackievirus B3; details: for EC50: Enterovirus B; remark: listed apart in the source
# in vitro [5] = details: monkey
# CV-B3 [6] = assay: microbe, parasite or virus in culture; format: cell-based, coxsackievirus B3; details: Enterovirus B, CVB3, BGM
# CV-A24 = assay: microbe, parasite or virus in culture; format: cell-based, coxsackievirus A24; details: Enterovirus C, CVA24, HeLa R19, read-out: EC50 CV-A24
# EV-A71 = assay: microbe, parasite or virus in culture; format: cell-based, enterovirus A71; details: Enterovirus A
# in vitro [7] = details: human; remark: listed apart in the source
# [8] = CVB3, HeLa R19, read-out: CV-B3 EC50 Average
# [9] = CVB3, HeLa R19, read-out: CV-B3 Exp 1 EC50
# [10] = CVB3, HeLa R19, read-out: CV-B3 Exp2 EC50
# [11] = CVB3, HeLa R19, read-out: EC50 HelaR19 Average
# [12] = CVB3, HeLa R19, read-out: Exp 1 EC50 HelaR19
# [13] = CVB3, HeLa R19, read-out: Exp 2 EC50 HelaR19
# [14] = HRVB14, HeLa R19, read-out: EC50 HRV-B14
# [15] = CVB3, HAP1, read-out: EC50 Hap1 Average
# [16] = CVB3, HAP1, read-out: Exp 1 EC50 Hap1
# [17] = CVB3, HAP1, read-out: Exp 2 EC50 Hap1
# [18] = EVD68, HeLa R19, read-out: EC50 EV-D68
# [19] = EVD68, HeLa R19, read-out: EC50 Exp1
# [20] = EVD68, HeLa R19, read-out: EC50 Exp2
# [21] = EVA71, HeLa R19, read-out: EC50 EV-A71
# [22] = HRVB14, HeLa R19, read-out: EC50 Exp1
# [23] = HRVB14, HeLa R19, read-out: EC50 Exp2
Molecule,EC50 (CV-B3 [2]; [9]),EC50 (CV-B3 [2]; [10]),EC50 (CV-B3 [2]; [12]),EC50 (CV-B3 [2]; [13]),EC50 (HRV-A2),EC50 (HRV-B14; [14]),CC50 (in vitro [3]; CC50 Average),CC50 (in vitro [3]; CC50 HelaR19 Average),CC50 (in vitro [3]; Exp 1 CC50),CC50 (in vitro [3]; Exp 1 CC50 HelaR19),CC50 (in vitro [3]; Exp2 CC50),CC50 (in vitro [3]; Exp 2 CC50 HelaR19),EC50 (PV-1),EC50 (CV-B3 [4]; [16]),EC50 (EV-D68; [18]),EC50 (EV-D68; [19]),EC50 (EV-D68; [20]),CC50 (in vitro [5]; CC50),CC50 (in vitro [5]; CC50 BGM Average),CC50 (in vitro [5]; Exp 1 CC50 BGM),also measured
(S)-fluoxetine [reference compound],–,–,–,–,–,–,–,–,–,–,–,–,–,–,–,–,–,–,–,–,"inhibition of contemporary/clinical isolates of EV-A71, CV-A24v and EV-D68 (in words) [1]: inhibited contemporary strains of EV-D68 and some, but not all, contemporary EV-A71 strains; antiviral activity against CV-B3 (in words) (CV-B3 [2]): inhibited; cross-resistance of 19d-resistant CV-B3 virus pools (in words) (CV-B3 [2]): cross-resistant; inhibition of HRV-A2 replication (in words) (HRV-A2): inhibited; inhibition of HRV-B14 replication (in words) (HRV-B14): inhibited; cross-resistance of 19d-resistant EV-D68 virus pools (in words) (EV-D68): cross-resistance; inhibition of EV-D68 replication (in words) (EV-D68): inhibited"
"COc1ccc(N(Cc2ccc(F)cc2)C(=O)c2ccc[nH]2)cc1 [Compound 5c, N-(4-fluorobenzyl)-N-(4-methoxyphenyl)-1H-pyrrole-2-carboxamide]",3.21 µM,2.81 µM,4.95 µM,4.68 µM,> 30 µM,> 30 µM,> 30 µM,> 100 µM,> 30 µM,> 100 µM,> 30 µM,> 100 µM,> 30 µM,2.05 µM,3.47 ± 0.08 µM,3.39 µM,3.54 µM,> 100 µM,56 µM,58 µM,"cytotoxicity (in words) (HeLa R19 cells): no cytotoxicity; EC50 (CV-B3 [2]; CVB3, HeLa): 4.82 ± 0.14 µM; EC50 (CV-B3 [2]; [8]): 3.01 µM; EC50 (CV-B3 [2]; [11]): 4.81 µM; EC50 (CV-B3 [4]; [15]): 2.52 µM; EC50 (CV-B3 [4]; [17]): 2.99 µM; CC50 (in vitro [5]; Exp 2 CC50 BGM): 54 µM; EC50 (CV-B3 [6]; read-out: EC50 BGM Average): 4.18 µM; EC50 (CV-B3 [6]; read-out: Exp 1 EC50 BGM): 3.86 µM; EC50 (CV-B3 [6]; read-out: Exp 2 EC50 BGM): 4.5 µM; EC50 (CV-A24): > 30 µM; EC50 (EV-A71; [21]): > 30 µM; CC50 (in vitro [7]; CC50): > 100 µM; CC50 (in vitro [7]; CC50 Hap1 Average): > 100 µM; CC50 (in vitro [7]; Exp 1 CC50 Hap1): > 100 µM; CC50 (in vitro [7]; Exp 2 CC50 Hap1): > 100 µM"
"CC(C)c1ccc(CN(C(=O)c2ccco2)c2ccccc2)cc1 [Compound 19h, N-(4-Isopropylbenzyl)-N-phenylfuran-2-carboxamide]",7.95 µM,6.11 µM,7.5 µM,7.8 µM,> 30 µM,4.64 ± 0.92 µM,> 30 µM,42.7 µM,> 30 µM,44.5 µM,> 30 µM,41 µM,> 30 µM,4.28 µM,> 30 µM,> 30 µM,> 30 µM,46.8 ± 1.48 µM,46.8 µM,45.4 µM,"CC50 (HeLa R19 cells; human): 42.8 ± 1.75 µM; cytotoxicity (in words) (HeLa R19 cells; human, monkey): cytotoxicity in a similar range as the parental compound 1; antiviral activity against CV-B3 (in words) (CV-B3 [2]): showed antiviral activity; effect of the substitution on antiviral activity against CV-B3 (in words) (CV-B3 [2]): decreased the antiviral activity to a larger extent; EC50 (CV-B3 [2]; CVB3, HeLa): 7.62 ± 0.93 µM; EC50 (CV-B3 [2]; [8]): 7.03 µM; EC50 (CV-B3 [2]; [11]): 7.65 µM; EC50 (HRV-B14; [22]): 5.55 µM; EC50 (HRV-B14; [23]): 3.72 µM; antiviral activity against CV-B3 in HAP1 cells (in words) (CV-B3 [4]): showed antiviral activity; EC50 (CV-B3 [4]; [17]): 3.98 µM; CC50 (in vitro [5]; Exp 2 CC50 BGM): 48.3 µM; EC50 (CV-B3 [6]): > 100 µM; EC50 (CV-A24): > 30 µM; EC50 (EV-A71; [21]): 1.89 ± 0.21 µM; EC50 (EV-A71; EVA71, HeLa R19, read-out: EC50 Exp1): 1.68 µM; EC50 (EV-A71; EVA71, HeLa R19, read-out: EC50 Exp2): 2.1 µM; CC50 (in vitro [7]; CC50 Hap1 Average): 48.7 µM; CC50 (in vitro [7]; Exp 1 CC50 Hap1): 48.4 µM; CC50 (in vitro [7]; Exp 2 CC50 Hap1): 49.1 µM"
"COc1ccc(N(Cc2ccc(F)cc2)C(=O)c2cccs2)cc1 [Compound 5d, N-(4-Fluorobenzyl)-N-(4-methoxyphenyl)thiophene-2-carboxamide]",0.47 µM,0.55 µM,0.52 µM,0.31 µM,> 30 µM,9.29 ± 0.36 µM,> 30 µM,53 µM,> 30 µM,52 µM,> 30 µM,54.1 µM,> 30 µM,0.17 µM,2.82 ± 0.4 µM,2.42 µM,3.21 µM,66 ± 1.05 µM,66 µM,65 µM,"cytotoxicity (in words) (HeLa R19 cells; human, monkey): cytotoxicity in a similar range as the parental compound 1; increase of antiviral activity against CV-B3 (CV-B3 [2]): approximately 4 fold; EC50 (CV-B3 [2]; CVB3, HeLa R19, read-out: 50% effective concentration [EC50]): 0.51 ± 0.05 µM; EC50 (HRV-B14; [22]): 9.65 µM; EC50 (HRV-B14; [23]): 8.93 µM; EC50 (CV-B3 [4]; [15]): 0.25 µM; CC50 (in vitro [5]; Exp 2 CC50 BGM): 67.1 µM; EC50 (CV-B3 [6]; read-out: EC50 BGM Average): 0.63 µM; EC50 (CV-B3 [6]; read-out: Exp 1 EC50 BGM): 0.49 µM; EC50 (CV-B3 [6]; read-out: Exp 2 EC50 BGM): 0.77 µM; EC50 (CV-A24): > 30 µM; EC50 (EV-A71; [21]): > 30 µM; CC50 (in vitro [7]; CC50 Hap1 Average): 53.9 µM; CC50 (in vitro [7]; Exp 1 CC50 Hap1): 53.9 µM; CC50 (in vitro [7]; Exp 2 CC50 Hap1): 54 µM"

# From paper PMC7673538 (PLoS Biology, 2020)
